Experimental data taken from ChEMBL document CHEMBL1148593, “Matrix metalloproteinase target family landscape: a chemometrical approach to ligand selectivity based on protein binding site analysis” (J Med Chem, 2006).

Assays:
Matrilysin = target: T1, Matrilysin (Homo sapiens, UniProt P09237); assay: Binding affinity to MMP7
T1 sequence (P09237 whole entry): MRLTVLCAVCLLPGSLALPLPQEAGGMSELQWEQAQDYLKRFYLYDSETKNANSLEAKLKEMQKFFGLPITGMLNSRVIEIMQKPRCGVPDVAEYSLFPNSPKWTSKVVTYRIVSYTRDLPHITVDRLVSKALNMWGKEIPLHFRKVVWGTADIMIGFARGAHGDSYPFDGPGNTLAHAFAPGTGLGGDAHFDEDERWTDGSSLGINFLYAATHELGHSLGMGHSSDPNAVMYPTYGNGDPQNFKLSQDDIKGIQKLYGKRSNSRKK

Stromelysin-1 = Stromelysin-1 (Homo sapiens, UniProt P08254); assay: Binding affinity to MMP3
Neutrophil collagenase = Neutrophil collagenase (Homo sapiens, UniProt P22894); assay: Binding affinity to MMP8
[1] = target: 72 kDa type IV collagenase (Homo sapiens, UniProt P08253); assay: Binding affinity to MMP2
Interstitial collagenase = target: T2, Interstitial collagenase (Homo sapiens, UniProt P03956); assay: Binding affinity to MMP1
T2 sequence (P03956 whole entry): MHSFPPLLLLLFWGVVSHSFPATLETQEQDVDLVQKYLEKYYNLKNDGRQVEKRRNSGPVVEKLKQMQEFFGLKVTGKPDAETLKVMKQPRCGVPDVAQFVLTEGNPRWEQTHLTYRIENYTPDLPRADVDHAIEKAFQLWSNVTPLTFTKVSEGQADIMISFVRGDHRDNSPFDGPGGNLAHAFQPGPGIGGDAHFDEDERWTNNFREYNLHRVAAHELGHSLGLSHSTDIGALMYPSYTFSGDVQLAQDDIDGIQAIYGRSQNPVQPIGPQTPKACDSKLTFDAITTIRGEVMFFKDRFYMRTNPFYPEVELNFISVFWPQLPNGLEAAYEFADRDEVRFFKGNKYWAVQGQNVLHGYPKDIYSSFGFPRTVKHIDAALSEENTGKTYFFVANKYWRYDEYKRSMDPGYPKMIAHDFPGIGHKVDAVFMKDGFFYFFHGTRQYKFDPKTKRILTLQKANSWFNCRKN

[2] = target: Matrix metalloproteinase-9 (Homo sapiens, UniProt P14780); assay: Binding affinity to MMP9
[3] = target: T3, Interstitial collagenase (Homo sapiens) (UniProt P03956); assay: Inhibition of MMP1 at 2 uM
T3 sequence (whole entry): T2 sequence (P03956 whole entry)

Stromelysin-3 = target: T4, Stromelysin-3 (Homo sapiens, UniProt P24347); assay: Binding affinity to MMP11
T4 sequence (P24347 whole entry): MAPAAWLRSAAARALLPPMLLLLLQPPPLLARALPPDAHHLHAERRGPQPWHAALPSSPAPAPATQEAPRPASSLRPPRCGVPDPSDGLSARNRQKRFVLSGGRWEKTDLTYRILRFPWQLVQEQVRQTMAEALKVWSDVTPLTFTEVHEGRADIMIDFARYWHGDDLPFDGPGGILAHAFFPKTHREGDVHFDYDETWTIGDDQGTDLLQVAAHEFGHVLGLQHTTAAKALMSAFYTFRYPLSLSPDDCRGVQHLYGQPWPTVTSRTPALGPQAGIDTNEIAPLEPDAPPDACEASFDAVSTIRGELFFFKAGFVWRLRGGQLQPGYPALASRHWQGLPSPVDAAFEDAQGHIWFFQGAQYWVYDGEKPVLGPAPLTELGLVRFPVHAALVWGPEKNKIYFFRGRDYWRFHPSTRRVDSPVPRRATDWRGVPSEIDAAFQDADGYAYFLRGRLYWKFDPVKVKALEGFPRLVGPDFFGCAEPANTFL

[4] = target: T5, Matrilysin (Homo sapiens) (UniProt P09237); assay: Inhibition of MMP7 at 2 uM
T5 sequence (whole entry): T1 sequence (P09237 whole entry)

Chain of Stromelysin-1 (P08254 whole entry): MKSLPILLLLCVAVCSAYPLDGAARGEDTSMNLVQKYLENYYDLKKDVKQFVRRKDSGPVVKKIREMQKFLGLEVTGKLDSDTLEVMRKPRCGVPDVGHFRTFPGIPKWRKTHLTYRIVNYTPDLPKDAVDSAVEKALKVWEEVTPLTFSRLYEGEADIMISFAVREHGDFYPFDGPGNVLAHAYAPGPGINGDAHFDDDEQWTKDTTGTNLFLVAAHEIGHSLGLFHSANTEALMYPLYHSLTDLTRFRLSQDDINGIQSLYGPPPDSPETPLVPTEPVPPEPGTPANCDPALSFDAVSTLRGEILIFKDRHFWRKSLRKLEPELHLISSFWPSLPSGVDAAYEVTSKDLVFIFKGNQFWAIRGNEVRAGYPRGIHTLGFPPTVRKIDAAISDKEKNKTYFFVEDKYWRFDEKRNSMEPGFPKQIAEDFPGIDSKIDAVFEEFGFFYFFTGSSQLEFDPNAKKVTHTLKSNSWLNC
Chain of Neutrophil collagenase (P22894 whole entry): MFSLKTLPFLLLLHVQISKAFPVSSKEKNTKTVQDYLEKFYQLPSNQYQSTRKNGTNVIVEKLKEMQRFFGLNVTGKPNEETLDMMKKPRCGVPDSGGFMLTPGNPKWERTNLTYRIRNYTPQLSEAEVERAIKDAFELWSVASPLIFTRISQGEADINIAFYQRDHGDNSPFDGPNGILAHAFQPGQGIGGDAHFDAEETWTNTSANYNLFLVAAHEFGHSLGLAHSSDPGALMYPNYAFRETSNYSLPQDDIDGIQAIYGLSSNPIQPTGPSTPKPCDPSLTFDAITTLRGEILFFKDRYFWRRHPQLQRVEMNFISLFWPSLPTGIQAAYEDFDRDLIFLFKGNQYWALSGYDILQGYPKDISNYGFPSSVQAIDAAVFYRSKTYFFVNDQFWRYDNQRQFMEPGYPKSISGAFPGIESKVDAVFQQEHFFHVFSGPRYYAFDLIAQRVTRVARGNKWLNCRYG
Chain of 72 kDa type IV collagenase (P08253 whole entry): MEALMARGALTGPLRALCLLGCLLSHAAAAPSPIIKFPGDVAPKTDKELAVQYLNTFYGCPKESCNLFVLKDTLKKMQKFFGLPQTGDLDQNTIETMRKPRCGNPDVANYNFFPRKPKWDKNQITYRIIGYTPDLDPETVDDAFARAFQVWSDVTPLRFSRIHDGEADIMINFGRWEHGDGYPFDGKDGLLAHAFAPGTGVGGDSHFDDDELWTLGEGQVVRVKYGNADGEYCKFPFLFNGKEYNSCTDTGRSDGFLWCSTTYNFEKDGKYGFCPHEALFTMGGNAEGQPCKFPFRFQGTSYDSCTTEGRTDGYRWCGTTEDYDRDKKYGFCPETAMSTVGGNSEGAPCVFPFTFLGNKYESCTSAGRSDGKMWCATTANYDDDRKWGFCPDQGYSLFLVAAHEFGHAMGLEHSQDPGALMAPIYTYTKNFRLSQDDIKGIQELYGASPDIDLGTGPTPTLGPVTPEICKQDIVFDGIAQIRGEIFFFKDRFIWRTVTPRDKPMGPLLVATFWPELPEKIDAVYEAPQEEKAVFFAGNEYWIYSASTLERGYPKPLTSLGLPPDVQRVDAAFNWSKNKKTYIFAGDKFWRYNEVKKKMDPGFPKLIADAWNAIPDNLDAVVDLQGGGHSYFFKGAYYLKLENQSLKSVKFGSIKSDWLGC
Chain of Matrix metalloproteinase-9 (P14780 whole entry): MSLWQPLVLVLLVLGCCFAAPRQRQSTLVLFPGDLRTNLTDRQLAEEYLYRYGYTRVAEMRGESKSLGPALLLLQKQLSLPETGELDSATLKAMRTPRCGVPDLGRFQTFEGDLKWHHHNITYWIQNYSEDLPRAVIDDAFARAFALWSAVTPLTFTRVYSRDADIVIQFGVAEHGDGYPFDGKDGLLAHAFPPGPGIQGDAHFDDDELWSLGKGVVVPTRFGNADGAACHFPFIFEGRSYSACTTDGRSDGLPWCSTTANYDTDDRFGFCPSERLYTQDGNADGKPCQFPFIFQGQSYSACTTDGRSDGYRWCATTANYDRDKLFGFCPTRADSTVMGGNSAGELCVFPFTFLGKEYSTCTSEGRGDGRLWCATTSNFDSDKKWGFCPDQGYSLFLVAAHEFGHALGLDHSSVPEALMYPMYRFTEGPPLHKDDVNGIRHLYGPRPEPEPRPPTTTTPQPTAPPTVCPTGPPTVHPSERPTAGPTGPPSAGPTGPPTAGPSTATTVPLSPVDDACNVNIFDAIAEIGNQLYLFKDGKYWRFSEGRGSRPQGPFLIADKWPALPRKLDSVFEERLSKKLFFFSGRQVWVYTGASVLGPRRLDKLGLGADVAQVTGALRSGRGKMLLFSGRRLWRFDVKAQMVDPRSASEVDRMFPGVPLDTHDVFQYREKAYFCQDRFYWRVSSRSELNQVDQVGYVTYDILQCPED

| SMILES | IC50 (Matrilysin) [nM] | IC50 (Stromelysin-1) [nM] | IC50 (Neutrophil collagenase) [nM] | IC50 [1] [nM] | IC50 (Interstitial collagenase) [nM] | also measured |
| --- | --- | --- | --- | --- | --- | --- |
| CC(C)CC(C(=O)N[C@H]1CCCCCCCCCCNC1=O)[C@H](O)C(=O)NO (stereo not given in full) | 200 | 500 | 20 | 20 | 30 | – |
| CNC(=O)C1CCCCNC(=O)CCC(C(=O)O)NC(CCc2ccccc2)C(=O)N1 (stereo not given) | – | – | – | – | – | Ki (Stromelysin-1): 2900 nM; Ki (Neutrophil collagenase): 17 nM; Ki [1]: 8100 nM; Ki [2]: 6600 nM |
| O=C(O)C1Cc2ccccc2CN1S(=O)(=O)CCc1ccc(-c2ccc(Cl)cc2)cc1 (stereo not given) | – | – | 10 | – | > 10000 | – |

More lines, main results first:

| IC50 (Matrilysin) [nM] | IC50 (Stromelysin-1) [nM] | IC50 (Neutrophil collagenase) [nM] | IC50 [1] [nM] | IC50 (Interstitial collagenase) [nM] | SMILES | also measured |
| --- | --- | --- | --- | --- | --- | --- |
| – | – | 2.5 | – | – | NC(=O)C(Cc1c[nH]c2ccccc12)NC(=O)C(CCCc1ccccc1)CP(=O)(O)C(Cc1ccccc1)NC(=O)OCc1ccccc1 (stereo not given) | inhibition [3]: 23%; Ki (Stromelysin-3): 5 nM; inhibition [4]: 8% |
| > 1000 | > 1000 | – | 2.6 | > 1000 | O=C(Nc1ccc(S(=O)(=O)C[C@@H](Cc2c[nH]c3ccccc23)C(=O)O)cc1)c1ccc(Br)cc1 | IC50 [2]: 2.7 nM |
